Test results reported in patent US11624685B2, “Method and system for imaging and analysis of a biological specimen” (The Board of Trustees of the Leland Stanford Junior …, priority 2016, dated 2023).

What was measured:
mPFC of Arc-rTag mice = experiment: Activity-dependent ribosome profiling of mPFC (microarray, qPCR); format: in vivo, mouse; conditions: IP fraction, two weeks after labeling
Description: Male Arc-rTag mice were trained and labeled with 4TM with the same protocol used in ArcTRAP labeling. After labeling, the mice were returned and kept in their home cage for 14 days to allow full integration of tagged ribosomes.
Immunoaffinity purification of ribosome RNA from mPFC was carried out similarly to a protocol previously described (Sanz et al, Proc Natl Acad Sci USA, 106:13939-13944 (2009)) with minor modifications. For preparation of anti-GFP-conjugated dynabeads, for each sample 50 μl protein G dynabeads (Life Technologies) was first washed with PBST and then incubated with 2 μl anti-GFP antibody (Abcam, ab290) in a total volume of 200 μl PBST. […] RNA samples (all at 100 ng per sample) were processed at the Stanford Protein and Nucleic Acid Biotechnology Facility by one-cycle target preparation, labeling and hybridization to Mouse Gene 2.0 ST Array (Affymetrix), according to the manufacturer's protocol and analyzed by Affymetrix Transcriptiome Analysis Console.
For qPCR analysis, RNA was reverse transcribed using the ABI high capacity cDNA synthesis kit and used in quantitative PCR reactions containing SYBR-green fluorescent dye (ABI). Relative expression of mRNAs was determined after normalization with TBP levels using the ΔΔCt method. […]

ArcTRAP mice = experiment: ArcTRAP labeling, background recombination; format: in vivo, mouse; conditions: novel aqueous formulation of 4TM, reduced dosage
Description: Male ArcTRAP (ArcCreER+/−, Ai14+/−) mice were used for study. 6-7 week old ArcTRAP mice were handled and injected with saline daily for at least 5 days prior to the experiment (including the home cage controls) to minimize the labeling due to handling and injections. The mice were 7-8 weeks old at the time of behavioral labeling. […] The home cage control group remained in their home cage for the whole period. All the chambers were cleaned with 70% ethanol between trials. On experimental day 2, all mice received 5 mg/kg 4TM (IP injection) 3 hours after the behavioral challenge to enable TRAP labeling. All groups, including the home cage controls, received 4-hyroxytamoxifen injections at the same time of the day (2-3 PM). The bedding of all cages were refreshed daily for 48 hours to prevent 4TM retake. All the labeled mice were kept in their home cage for an additional 10 days to allow the full expression of tdTomoto before perfusion.
10 mg of 4TM (Sigma H6278) was first dissolved in 250 μl DMSO. This stock is first diluted in 5 ml of saline containing 2% Tween 80 and then diluted 1:1 again with saline. The final injectable solution contained: 1 mg/ml 4TM, 1% Tween 80 and 2.5% DMSO in saline.

Compound: COC(=O)[C@H]1[C@@H](OC(=O)c2ccccc2)C[C@@H]2CC[C@H]1N2C [cocaine]
- Npas4 transcript enrichment in cocaine-activated cells compared to shock-activated cells (mPFC of Arc-rTag mice): 3 fold

Compound: 4-hydroxytamoxifen [4TM]
- background recombination in ArcTRAP line (ArcTRAP mice): eliminate the background recombination
